Source: patent US10807994B2, “Heterocyclic compounds and uses thereof” (NUVATION BIO INC., priority 2017, dated 2020)
Where a name gives a salt, the structure may show the parent alone. Read-outs that look alike come from different tables or passages of the source.

What was measured:
WEE1 kinase enzyme = WEE1 kinase enzyme (Homo sapiens (Human), UniProt P30291); test: WEE1 IC50 determination, LanthaScreen Terbium labeled TR-FRET kinase assay; format: biochemical; details: WEE1 enzyme 1 nM
Experimental: IC50 values of compounds against WEE1 kinase enzyme were determined by LanthaScreen™ Terbium Labeled TR-FRET assay. Kinase assays were performed in 1× kinase buffer (# PV6135, Invitrogen, Life Technologies Grand Island, N.Y.) where total reaction volume was 10 μl in low-volume 384-well plates (#4511, Corning). Serially diluted compounds (3-fold) were incubated with WEE1 Enzyme (1 nM) (# PR7373A, Invitrogen, Life Technologies Grand Island, N.Y.) for 10 min, following which a mixture of ATP […] (# A1852, Sigma, St-Louis, Mo.) and fluorescent-PolyGT substrate (200 nM) (# PV3610, Invitrogen, Life Technologies Grand Island, N.Y.) was added and incubated in dark at room temperature for 1 h. After 1 h, 10 μl stop solution containing Terbium labeled antibody (4 nM) (# PV3529, Invitrogen, Life Technologies Grand Island, N.Y.) and EDTA (# E5134, Sigma, St-Louis, Mo.) (20 mM) in TR-FRET dilution buffer (# PV3574, Invitrogen, Life Technologies Grand Island, N.Y.) was added. Readings were taken in a Synergy Neo Plate reader (BioTek, Winooski) at single excitation of 340 nm and Dual emission at 495 nm and 520 nm respectively.
The % activity of test samples was calculated as (Sample−Min)*100/(Max−Min). [Max: DMSO control, complete reaction with enzyme & DMSO and Min: No enzyme & DMSO]. Percent inhibition (100-% activity) was fitted to the “four-parameter logistic model” in XLfit for determination of IC50 values.

A427 cells = test: Cytotoxicity assay (resazurin), A427 cells, 72 hr; format: cell-based
Experimental: (§1) A549 (CCL-185; ATCC) and A427 (HTB-53; ATCC), both lung epithelial cell lines were seeded in their respective medium (DMEM/MEM, 10569044/41090101; Gibco) at a cell count of 1500 cells per 100 μL per well in a 96 well edge plate (167425; ThermoFisher). Cells were allowed to grow at 37° C. for 24 hr in 5% CO2 environment (culture conditions) in a Nuaire incubator (humidified). Serially diluted test compounds (100 μL) within the desired testing concentration ranges were added to the culture plate were further incubated in culture conditions for 72 hr and 96 hr for A427 and A549 respectively. The experiment was terminated at the designated incubation time by replacing the medium with 100 μL of 1 mM of resazurin (R7017; Sigma) prepared in respective culture medium, and the plates were further incubated in culture conditions for 4-6 hr. Fluorescence was recorded using a multimodal plate reader (Biotek Synergy Neo) at an excitation wavelength of 535 nm and emission wavelength of 590 nm to obtain relative fluorescence units. Data analysis was done by subtracting the background fluorescence (only medium blank) value from each reading and then normalizing with the vehicle control (DMSO treated cells) to obtain percent survival/proliferation. Percent survival was then subtracted by 100 to get the percent inhibition of proliferation which was used to calculate IC50 values. Potency of compounds in other cell lines (As-Pc-1, Panc-10.05, MDAMB231, A172) was determined in an analogous manner.

A549 cells = test: Cytotoxicity assay (resazurin), A549 cells, 96 hr; format: cell-based; details: read-out: Cell Viability A549 IC50
Experimental: as §1

[1] = Homo sapiens, A-427, read-out: Cell Viability A427 IC50

Sequence of WEE1 kinase enzyme (P30291 whole entry): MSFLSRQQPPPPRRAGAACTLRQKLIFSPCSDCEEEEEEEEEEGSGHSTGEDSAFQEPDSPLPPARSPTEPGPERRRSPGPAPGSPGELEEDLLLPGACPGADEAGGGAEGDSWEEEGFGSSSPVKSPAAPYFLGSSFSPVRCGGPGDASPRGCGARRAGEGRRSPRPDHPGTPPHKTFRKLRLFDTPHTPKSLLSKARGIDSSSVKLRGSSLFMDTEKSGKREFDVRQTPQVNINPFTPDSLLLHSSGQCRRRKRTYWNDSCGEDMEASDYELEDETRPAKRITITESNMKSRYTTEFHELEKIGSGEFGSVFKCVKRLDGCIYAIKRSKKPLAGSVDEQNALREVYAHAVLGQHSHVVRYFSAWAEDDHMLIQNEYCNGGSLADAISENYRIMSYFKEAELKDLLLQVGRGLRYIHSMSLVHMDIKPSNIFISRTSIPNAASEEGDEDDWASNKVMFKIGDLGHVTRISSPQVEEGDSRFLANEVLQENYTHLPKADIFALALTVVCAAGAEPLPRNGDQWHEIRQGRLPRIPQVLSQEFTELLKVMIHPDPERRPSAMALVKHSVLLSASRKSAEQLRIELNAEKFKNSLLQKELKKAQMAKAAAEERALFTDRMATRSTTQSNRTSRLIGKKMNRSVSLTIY

Structure (SMILES): CN1CCN(c2ccc(Nc3ncc4c(n3)OCN(c3c(Cl)cccc3Cl)C4=O)cc2)CC1 [Example 1.1]
- IC50 (WEE1 kinase enzyme): 56 nM
- IC50 (A427 cells; [1]): 4470 nM
- IC50 (A549 cells; Homo sapiens): 9700 nM

Structure (SMILES): CN1Cc2cc(Nc3ncc4c(n3)OCN(c3c(Cl)cccc3Cl)C4=O)ccc2C(C)(C)C1 [Example 1.4]
- IC50 (WEE1 kinase enzyme): 9 nM
- IC50 (A549 cells; Homo sapiens): 5740 nM

Structure (SMILES): O=C1c2cnc(Nc3ccc(N4CCNCC4)c(F)c3)nc2OCN1c1c(Cl)cccc1Cl [Example 1.29]
- IC50 (WEE1 kinase enzyme): 212 nM
- IC50 (A549 cells; Homo sapiens): 8880 nM

Structure (SMILES): Cc1cccc(Cl)c1N1COc2nc(Nc3ccc(N4CCNCC4)cc3)ncc2C1=O [Example 1.30, 3-(2-chloro-6-methylphenyl)-7-((4-(piperazin-1-yl)phenyl)amino)-2,3-dihydro-4H-pyrimido[5,4-e][1,3]oxazin-4-one]
- IC50 (WEE1 kinase enzyme): 325 nM
- IC50 (A549 cells; Homo sapiens): 8650 nM

Structure (SMILES): CN1CCN(c2ccc(Nc3cc4c(cn3)C(=O)N(c3c(Cl)cccc3Cl)CO4)cc2)CC1 [Example 1.32, 3-(2,6-dichlorophenyl)-7-(4-(4-methylpiperazin-1-yl)phenylamino)-2H-pyrido[3,4-e][1,3]oxazin-4(3H)-one]
- IC50 (WEE1 kinase enzyme): 366 nM
- IC50 (A549 cells): 7430 nM

Structure (SMILES): Cc1cc(Nc2ncc3c(n2)OCN(c2c(Cl)cccc2Cl)C3=O)ccc1N1CCNCC1 [Example 1.33, 3-(2,6-dichlorophenyl)-7-(3-methyl-4-(piperazin-1-yl)phenylamino)-2H-pyrimido[5,4-e][1,3]oxazin-4(3H)-one]
- IC50 (WEE1 kinase enzyme): 50 nM
- IC50 (A427 cells; [1]): 2820 nM
- IC50 (A549 cells; Homo sapiens): 2690 nM

Structure (SMILES): O=C1c2cnc(Nc3ccc(C4CCNCC4)c(CO)c3)nc2OCN1c1c(Cl)cccc1Cl [Example 1.34, 3-(2,6-dichlorophenyl)-7-(3-(hydroxymethyl)-4-(piperidin-4-yl)phenylamino)-2H-pyrimido[5,4-e][1,3]oxazin-4(3H)-one]
- IC50 (WEE1 kinase enzyme): 14 nM
- IC50 (A427 cells; read-out: Cell Viability A427 IC50): 4810 nM
- IC50 (A549 cells): 21000 nM

Structure (SMILES): CN1CCc2ccc(Nc3ncc4c(n3)OCN(c3c(Cl)cccc3Cl)C4=O)cc2C1 [Example 1.35, 3-(2,6-dichlorophenyl)-7-(2-methyl-1,2,3,4-tetrahydroisoquinolin-7-ylamino)-2H-pyrimido[5,4-e][1,3]oxazin-4(3H)-one]
- IC50 (WEE1 kinase enzyme): 35 nM
- IC50 (A549 cells; Homo sapiens): 11100 nM

Structure (SMILES): O=C1c2cnc(Nc3ccc(N4CCNCC4)nc3)nc2OCN1c1c(Cl)cccc1Cl [Example 1.36, 3-(2,6-dichlorophenyl)-7-((6-(piperazin-1-yl)pyridin-3-yl)amino)-2,3-dihydro-4H-pyrimido[5,4-e][1,3]oxazin-4-one]
- IC50 (WEE1 kinase enzyme): 104 nM
- IC50 (A427 cells; [1]): 10400 nM
- IC50 (A549 cells; Homo sapiens): 8120 nM

Structure (SMILES): O=C1c2cnc(Nc3ccc(N4CCNC[C@@H]4CO)cc3)nc2OCN1c1c(Cl)cccc1Cl [Example 1.37, (R)-3-(2,6-dichlorophenyl)-7-(4-(2-(hydroxymethyl)piperazin-1-yl)phenylamino)-2H-pyrimido[5,4-e][1,3]oxazin-4(3H)-one]
- IC50 (WEE1 kinase enzyme): 113 nM
- IC50 (A549 cells; Homo sapiens): 9820 nM

Structure (SMILES): O=C1c2cnc(Nc3ccc(N4CCNC[C@H]4CO)cc3)nc2OCN1c1c(Cl)cccc1Cl [Example 1.38, (S)-3-(2,6-dichlorophenyl)-7-(4-(2-(hydroxymethyl)piperazin-1-yl)phenylamino)-2H-pyrimido[5,4-e][1,3]oxazin-4(3H)-one]
- IC50 (WEE1 kinase enzyme): 176 nM
- IC50 (A549 cells; Homo sapiens): 9150 nM

Structure (SMILES): O=C1c2cnc(Nc3ccc(N4CCNCC4)cc3)nc2OCN1c1c(F)cccc1F [Example 1.39, 3-(2,6-difluorophenyl)-7-(4-(piperazin-1-yl)phenylamino)-2H-pyrimido[5,4-e][1,3]oxazin-4(3H)-one]
- IC50 (WEE1 kinase enzyme): 540 nM
- IC50 (A549 cells; Homo sapiens): 10400 nM

Structure (SMILES): O=C1c2cnc(Nc3ccc(N4CCNCC4)c(Cl)c3)nc2OCN1c1c(Cl)cccc1Cl [Example 1.40, 7-(3-chloro-4-(piperazin-1-yl)phenylamino)-3-(2,6-dichlorophenyl)-2H-pyrimido[5,4-e][1,3]oxazin-4(3H)-one]
- IC50 (WEE1 kinase enzyme): 20 nM
- IC50 (A427 cells; [1]): 2650 nM
- IC50 (A549 cells; Homo sapiens): 2730 nM

Structure (SMILES): O=C1CNCCN1c1ccc(Nc2ncc3c(n2)OCN(c2c(Cl)cccc2Cl)C3=O)cc1 [Example 1.41, 3-(2,6-dichlorophenyl)-7-((4-(2-oxopiperazin-1-yl)phenyl)amino)-2,3-dihydro-4H-pyrimido[5,4-e][1,3]oxazin-4-one]
- IC50 (WEE1 kinase enzyme): 791 nM
- IC50 (A549 cells; Homo sapiens): > 30000 nM

Structure (SMILES): CN1CCC(c2ccc(Nc3ncc4c(n3)OCN(c3c(Cl)cccc3Cl)C4=O)cc2CO)CC1 [Example 1.42, 3-(2,6-dichlorophenyl)-7-(3-(hydroxymethyl)-4-(1-methylpiperidin-4-yl)phenylamino)-2H-pyrimido[5,4-e][1,3]oxazin-4(3H)-one]
- IC50 (WEE1 kinase enzyme): 25 nM
- IC50 (A427 cells; [1]): 3200 nM
- IC50 (A549 cells; Homo sapiens): 5600 nM

Structure (SMILES): CN1CCN(c2ccc(Nc3ncc4c(n3)OCN(c3c(Cl)cncc3Cl)C4=O)cc2)CC1 [Example 1.43, 3-(3,5-dichloropyridin-4-yl)-7-(4-(4-methylpiperazin-1-yl)phenylamino)-2H-pyrimido[5,4-e][1,3]oxazin-4(3H)-one]
- IC50 (WEE1 kinase enzyme): 479 nM
- IC50 (A549 cells; Homo sapiens): 22100 nM

Structure (SMILES): O=C1c2cnc(Nc3ccc4c(c3)CCNC4)nc2OCN1c1c(Cl)cccc1Cl [Example 1.44, 3-(2,6-dichlorophenyl)-7-(1,2,3,4-tetrahydroisoquinolin-6-ylamino)-2H-pyrimido[5,4-e][1,3]oxazin-4(3H)-one]
- IC50 (WEE1 kinase enzyme): 23 nM
- IC50 (A549 cells; Homo sapiens): 5790 nM

Structure (SMILES): O=C1c2cnc(Nc3ccc(N4CCC(O)CC4)cc3)nc2OCN1c1c(Cl)cccc1Cl [Example 1.45, 3-(2,6-dichlorophenyl)-7-(4-(4-hydroxypiperidin-1-yl)phenylamino)-2H-pyrimido[5,4-e][1,3]oxazin-4(3H)-one]
- IC50 (WEE1 kinase enzyme): 288 nM
- IC50 (A549 cells; Homo sapiens): > 30000 nM

Structure (SMILES): NCC(=O)N1CCN(c2ccc(Nc3ncc4c(n3)OCN(c3c(Cl)cccc3Cl)C4=O)cc2)CC1 [Example 1.46, 7-(4-(4-(2-aminoacetyl)piperazin-1-yl)phenylamino)-3-(2,6-dichlorophenyl)-2H-pyrimido[5,4-e][1,3]oxazin-4(3H)-one]
- IC50 (WEE1 kinase enzyme): 53 nM
- IC50 (A549 cells; Homo sapiens): 9860 nM

Structure (SMILES): C[C@@H]1CN[C@@H](C)CN1c1ccc(Nc2ncc3c(n2)OCN(c2c(Cl)cccc2Cl)C3=O)cc1 [Example 1.47, 3-(2,6-dichlorophenyl)-7-(4-((2R,5S)-2,5-dimethylpiperazin-1-yl)phenylamino)-2H-pyrimido[5,4-e][1,3]oxazin-4(3H)-one hydrochloride]
- IC50 (WEE1 kinase enzyme): 70 nM
- IC50 (A427 cells; [1]): 7100 nM
- IC50 (A549 cells; Homo sapiens): 4100 nM

Structure (SMILES): CNCCOc1ccc(Nc2ncc3c(n2)OCN(c2c(Cl)cccc2Cl)C3=O)cc1 [Example 1.48, 3-(2,6-dichlorophenyl)-7-(4-(2-(methylamino)ethoxy)phenylamino)-2H-pyrimido[5,4-e][1,3]oxazin-4(3H)-one]
- IC50 (WEE1 kinase enzyme): 103 nM
- IC50 (A427 cells; [1]): 11100 nM
- IC50 (A549 cells; Homo sapiens): 8380 nM

Structure (SMILES): COc1cc(Nc2ncc3c(n2)SCN(c2c(Cl)cccc2Cl)C3=O)ccc1N1CCC(N(C)C)CC1 [Example 1.242]
- IC50 (WEE1 kinase enzyme): 331 nM
- IC50 (A427 cells; [1]): 1620 nM

Structure (SMILES): CC1CNCCN1c1ccc(Nc2ncc3c(n2)SCN(c2c(Cl)cccc2Cl)C3=O)cc1Cl (stereo not drawn) [Example 1.243]
- IC50 (WEE1 kinase enzyme): 948 nM
- IC50 (A427 cells; [1]): 625 nM

Structure (SMILES): CC1CN(c2ccc(Nc3ncc4c(n3)SCN(c3c(Cl)cccc3Cl)C4=O)cc2Cl)CCN1 (stereo not drawn) [Example 1.244]
- IC50 (WEE1 kinase enzyme): 351 nM
- IC50 (A427 cells; [1]): 510 nM

Structure (SMILES): CN(C)C1CCN(c2ccc(Nc3ncc4c(n3)SCN(c3c(F)cccc3Cl)C4=O)cc2Cl)CC1 [Example 1.245]
- IC50 (WEE1 kinase enzyme): 297 nM
- IC50 (A427 cells; [1]): 1140 nM

Structure (SMILES): CC1(C)NCCc2cc(Nc3ncc4c(n3)SCN(c3c(Cl)cccc3Cl)C4=O)ccc21 [Example 1.246]
- IC50 (WEE1 kinase enzyme): 61 nM
- IC50 (A427 cells; [1]): 2440 nM
